According to patent US20100135905A1, “ASSESSMENT OF CANCER SUSCEPTIBILITY TO MOLECULAR TARGETED THERAPY BY USE OF RECOMBINANT PEPTIDES” (priority 2004, published 2010):

Columns and labels:
[1] = system: D54 tumors; test: Tumor growth delay with SU11248, D54 tumors; assay type: in vivo, nude mice; settings: SU11248 alone
Protocol: (§1) D54 and LLC tumors were implanted into both hind limbs of nude mice as described in Example 2. Tumors were grown over the course of seven to 10 days.
(§2) In comparison, LLC tumors responded to SU11248 alone or in combination with radiation.

[2] = system: LLC tumors; test: Tumor growth delay, LLC hind limb tumors; assay type: in vivo, mice
Description: As disclosed herein, the induction of apoptosis correlated with the biological response in tumor blood vessels and tumor growth delay. […] Both the inhibitor and radiation were discontinued after day 8. […] Time to doubling of LLC tumor size was 5, 6, 8, and 16 days for each group, respectively.

[3] = system: tumor vasculature; test: Tumor vascular length density, intravital tumor vascular window; assay type: in vivo, mice
Protocol: Tumor vascular linear density was measured by use of intravital tumor vascular window. […] Five mice were treated in each of the treatment groups, and the vascular length density after treatment was quantified.

[4] = system: tumor endothelial cells; test: TUNEL staining of treated tumor sections; assay type: in vivo
[5] = system: HUVECs; test: Apoptotic nuclei in HUVECs, H&E staining; assay type: cell-based, human; settings: 24 hours
Protocol: After a 24-hour incubation period, cells were fixed and stained with Hematoxylin and Eosin (H&E). Five high-powered fields (400×) were observed and counted for each experimental group.

[6] = system: A431, Colo205, H460, C6 and SF763T tumors; settings: regression, growth arrest or growth delay of xenografts; cited from earlier work
[7] = system: HUVECs; test: Clonogenic survival of HUVECs; assay type: cell-based, human; settings: SU11248 prior to irradiation compared to radiation alone (p<0.05)
[8] = system: LLC tumors; test: Tumor growth delay with SU11248, LLC tumors; assay type: in vivo, nude mice; settings: drug alone
Protocol: as §1, §2

For `CCN(CC)CCNC(=O)c1c(C)[nH]c(/C=C2\C(=O)Nc3ccc(F)cc32)c1C` [SU11248], the Tumor growth delay [1] was “did not show tumor growth delay”, the “Time to doubling of LLC tumor size” value ([2]; SU11248 40 mg/kg i.p. 30 minutes before each 3 Gy dose (21 Gy total)) was 16 days and the “Time to doubling of LLC tumor size” value ([2]; SU11248 40 mg/kg i.p. daily, seven administrations, alone) was 6 days. The “Vascular length density (VLD) in tumors” value ([3]; SU11248 40 mg/kg followed by 3 Gy, within 72 hours) was 8 % of that at 0 hours, the “Vascular length density (VLD) in tumors” value ([3]; SU11248 alone) was 84 % that of 0 hour and the “Threshold radiation dose for induction of apoptosis” value ([4]; SU11248 administered prior to irradiation, tumor endothelium) was 2 Gy. The “TUNEL staining of tumor sections” value ([4]; SU11248 alone) was “no TUNEL staining”, the “TUNEL staining of tumor sections” value ([4]; SU11248 followed by 3 Gy, co-localization with vWF) was “positive TUNEL staining in endothelial cells” and the “Percentage of endothelial cells with apoptotic nuclei” value ([5]; 100 nM SU11248 alone) was 7%. The “Percentage of endothelial cells with apoptotic nuclei” value ([5]; 100 nM SU11248 followed by 6 Gy) was 21%, the “Anti-tumor activity in mice” value [6] was “broad and potent anti-tumor activity” and the Clonogenic survival [7] was “significant reduction in clonogenic survival”. The Tumor growth delay [8] was “showed a tumor growth delay”.
